Reference: US11993573B2, “Chromane-substituted, tetrahydroquinoline-substituted and thiochromane-substituted heteroarotinoids as anti-cancer agents” (THE BOARD OF REGENTS FOR OKLAHOMA STATE UNIVERSITY, priority 2018, dated 2024)
Like-named read-outs stand apart in the source and are kept apart here.

Experiments:
[1] = system: human ovarian cancer cell line A2780; experiment: Growth inhibition assay (CellTiter 96 Non-Rad Cell Proliferation Assay); format: cell-based; conditions: for IC50 / Emax: Homo sapiens; for efficacy compared with SHetA2 / IC50 compared with SHetA2: comparison in words; for IC50 compared with SHetA2: 'exceeded' = lower IC50 in Table 1
Procedure: To illustrate the general activity of the compounds inhibiting growth of human […] ovarian cancer cells, selected compounds were synthesized and evaluated. The compounds were dissolved in DMSO at a concentration of 0.01 M. The human ovarian cancer cell line A2780 was plated in 96-well tissue culture dishes at a concentration of 3000 cells per well in RPMI medium supplemented with 10% fetal bovine serum and a mixture of antibiotics and antimycotics. The next day, the cultures were treated in triplicate with compound concentrations ranging from 2 μM to 8 μM increments. For compound 12, additional experiments were performed with concentrations of 10 μM and a series of two-fold dilutions to 156 nM. Control cultures were treated with DMSO solvent only. After 72 h of incubation, the […] 96® Non-Rad Cell Proliferation Assay (Promega) was used to quantify the remaining metabolically living cells. After subtracting blank values, the optical density (OD) readouts of the assay for the treated cultures were normalized with the average OD of the control cultures. For each compound, the experiment was repeated at least once, resulting in a minimum of 6 dose-response curves. For SHetA2, 24 response curves were available for statistical fitting parameters. A custom program was written in GNU Octave, a free software compatible with Matlab, to fit the dose-response curves with a four-parameter sigmoid function, extracting the IC50 and efficacy (the maximal % growth inhibition) parameters.
To illustrate the useful biological activity of these chroman-substituted and tetrahydroquinoline-substituted heteroarotinoids, the compounds were screened against human […] ovarian cancer cells.

[2] = A2780, 72 h, Table 1, chroman-containing series
[3] = A2780, 72 h, Table 1, maximal % growth inhibition, A2780, 72 h, read-out: Efficacy
[4] = A2780, 72 h, Table 2, tetrahydroquinoline-containing members
[5] = A2780, 72 h, Table 2, maximal % growth inhibition, A2780, 72 h, read-out: Efficacy
[6] = A2780, Table 3, 14 series (thiochroman), A2780
[7] = A2780, Table 3, 14 series, A2780, read-out: % Efficacy

CC1(C)CC(C)(C)c2cc(NC(=S)Nc3ccc(C(F)(F)F)cc3)ccc2O1 [Compound 2c, 1-(2,2,4,4-Tetramethylchroman-6-yl)-3-(4-(trifluoromethyl)phenyl)thiourea]
IC50 [1, 2]: 4.7 µM
Emax [1, 3]: 22%
melting point: 166 to 168 °C

CC1(C)CC(C)(C)c2cc(NC(=S)Nc3ccc(S(N)(=O)=O)cc3)ccc2O1 [Compound 2d, 4-(3-(2,2,4,4-Tetramethylchroman-6-yl)thioureido)benzenesulfonamide]
melting point: 186 to 187 °C

CC1(C)CC(C)(C)c2cc(NC(=O)Nc3ccc(C(F)(F)F)cc3)ccc2O1 [Compound 3a, 1-(2,2,4,4-Tetramethylchroman-6-yl)-3-(4-(trifluoromethyl)phenyl)urea]
IC50 [1, 2]: 4.1 µM
Emax [1, 3]: 79%
melting point: 245 to 246 °C

CC1(C)CC(C)(C)c2cc(NC(=O)Nc3ccc(C#N)cc3)ccc2O1 [Compound 3b, 1-(4-Cyanophenyl)-3-(2,2,4,4-tetramethylchroman-6-yl)urea]
efficacy compared with SHetA2 ([1]; A2780): exceeded the efficacy of SHetA2
melting point: 225 to 226 °C

CC1(C)CC(C)(C)c2cc(NC(=O)Nc3ccc(OC(F)(F)F)cc3)ccc2O1 [Compound 3c, 1-(2,2,4,4-Tetramethylchroman-6-yl)-3-(4-(trifluoromethoxy)phenyl)urea]
IC50 [1, 2]: 3.6 µM
Emax [1, 3]: 88.4%
efficacy compared with SHetA2 ([1]; A2780): exceeded the efficacy of SHetA2
melting point: 219 to 221 °C

CC1(C)CCOc2ccc(NC(=S)Nc3ccc(C(F)(F)F)cc3)cc21 [Compound 4b, 1-(4,4-Dimethylchroman-6-yl)-3-(4-(trifluoromethyl)phenyl)thiourea]
IC50 [1, 2]: 5.5 µM
Emax [1, 3]: 28%
melting point: 147 to 149 °C

CC1(C)CCOc2ccc(NC(=S)Nc3ccc(OC(F)(F)F)cc3)cc21 [Compound 4c, 1-(4,4-Dimethylchroman-6-yl)-3-(4-(trifluoromethoxy)phenyl)thiourea]
IC50 [1, 2]: 4.3 µM
Emax [1, 3]: 16%
melting point: 153 to 154 °C

CC1(C)CCOc2ccc(NC(=O)Nc3ccc(OC(F)(F)F)cc3)cc21 [Compound 5c, 1-(4,4-Dimethylchroman-6-yl)-3-(4-(trifluoromethoxy)phenyl)urea]
IC50 [1, 2]: 3.5 µM
Emax [1, 3]: 36%
melting point: 230 to 231 °C

CCC1(CC)CC(C)(C)c2cc(NC(=O)Nc3ccc(C(F)(F)F)cc3)ccc2O1 [Compound 6c, 1-(2,2-Diethyl-4,4-dimethylchroman-6-yl)-3-(4-(trifluoromethyl)phenyl)urea]
IC50 [1, 2]: 2.45 µM
Emax [1, 3]: 92.4%
efficacy compared with SHetA2 ([1]; A2780): exceeded the efficacy of SHetA2
IC50 compared with SHetA2 ([1]; A2780): exceeded
melting point: 208 to 210 °C

CCC1(CC)CC(C)(C)Oc2ccc(NC(=S)Nc3ccc(C(F)(F)F)cc3)cc21 [Compound 7b, 1-(4,4-Diethyl-2,2-dimethylchroman-6-yl)-3-(4-(trifluoromethyl)phenyl)thiourea]
IC50 [1, 2]: 4.7 µM
Emax [1, 3]: 11.8%
melting point: 155 to 156 °C

CCC1(CC)CC(C)(C)Oc2ccc(NC(=O)Nc3ccc(C(F)(F)F)cc3)cc21 [Compound 7d, 1-(4,4-Diethyl-2,2-dimethylchroman-6-yl)-3-(4-(trifluoromethyl)phenyl)urea]
IC50 [1, 2]: 2.43 µM
Emax [1, 3]: 93.3%
efficacy compared with SHetA2 ([1]; A2780): exceeded the efficacy of SHetA2
IC50 compared with SHetA2 ([1]; A2780): exceeded
melting point: 225 to 226 °C

CCC1(CC)CC(CC)(CC)c2cc(NC(=O)Nc3ccc(C(F)(F)F)cc3)ccc2O1 [Compound 8c, 1-(2,2,4,4-Tetraethylchroman-6-yl)-3-(4-(trifluoromethyl)phenyl)urea]
IC50 [1, 2]: 2 µM
Emax [1, 3]: 86.2%
IC50 compared with SHetA2 ([1]; A2780): exceeded
melting point: 165 to 166 °C

CCC1(CC)CC(CC)(CC)c2cc(NC(=O)Nc3ccc(OC(F)(F)F)cc3)ccc2O1 [Compound 8d, 1-(2,2,4,4-Tetraethylchroman-6-yl)-3-(4-(trifluoromethoxy)phenyl)urea]
IC50 [1, 2]: 3 µM
Emax [1, 3]: 67%
IC50 compared with SHetA2 ([1]; A2780): exceeded
melting point: 180 to 181 °C

CC1(C)CCNc2ccc(NC(=O)Nc3ccc([N+](=O)[O-])cc3)cc21 [Compound 9a, 1-(4,4-Dimethyl-1,2,3,4-tetrahydroquinolin-6-yl)-3-(4-nitrophenyl)urea]
IC50 [1, 4]: 6.9 µM
Emax [1, 5]: 17.1%
melting point: 219 to 220 °C

CC1(C)CCNc2ccc(NC(=S)Nc3ccc([N+](=O)[O-])cc3)cc21 [Compound 9b, 1-(4,4-Dimethyl-1,2,3,4-tetrahydroquinolin-6-yl)-3-(4-nitrophenyl)thiourea]
IC50 [1, 4]: 7.1 µM
Emax [1, 5]: 17.8%
melting point: 150 to 152 °C

CC1(C)CCNc2ccc(NC(=S)Nc3ccc(C(F)(F)F)cc3)cc21 [Compound 9c, 1-(4,4-Dimethyl-1,2,3,4-tetrahydroquinolin-6-yl)-3-(4-(trifluoromethyl)phenyl)thiourea]
IC50 [1, 4]: 6 µM
Emax [1, 5]: 42%
melting point: 104 to 105 °C

CC1(C)CCNc2ccc(NC(=S)Nc3ccc(OC(F)(F)F)cc3)cc21 [Compound 9d, 1-(4,4-Dimethyl-1,2,3,4-tetrahydroquinolin-6-yl)-3-(4-(trifluoromethoxy)phenyl)thiourea]
IC50 [1, 4]: 7.1 µM
Emax [1, 5]: 24%
melting point: 69 to 71 °C

CN1c2ccc(NC(=O)Nc3ccc([N+](=O)[O-])cc3)cc2C(C)(C)C(=O)C1(C)C [Compound 11a, 1-(4-Nitrophenyl)-3-(1,2,2,4,4-pentamethyl-3-oxo-1,2,3,4-tetrahydroquinolin-6-yl)urea]
IC50 [1, 4]: 3.8 µM
Emax [1, 5]: 94.8%
melting point: 200 to 201 °C

CN1c2ccc(NC(=S)Nc3ccc([N+](=O)[O-])cc3)cc2C(C)(C)C(=O)C1(C)C [Compound 11b, 1-(4-Nitrophenyl)-3-(1,2,2,4,4-pentamethyl-3-oxo-1,2,3,4-tetrahydroquinolin-6-yl)thiourea]
IC50 [1, 4]: 4.4 µM
Emax [1, 5]: 91.4%
melting point: 145 to 147 °C

CN1c2ccc(NC(=O)Nc3ccc(C(F)(F)F)cc3)cc2C(C)(C)C(=O)C1(C)C [Compound 11c, 1-(1,2,2,4,4-Pentamethyl-3-oxo-1,2,3,4-tetrahydroquinolin-6-yl)-3-(4-(trifluoromethyl)phenyl)urea]
IC50 [1, 4]: 2.58 µM
Emax [1, 5]: 90.1%
melting point: 198 to 199 °C

CN1c2ccc(NC(=O)Nc3ccc(OC(F)(F)F)cc3)cc2C(C)(C)C(=O)C1(C)C [Compound 11e, 1-(1,2,2,4,4-Pentamethyl-3-oxo-1,2,3,4-tetrahydroquinolin-6-yl)-3-(4-(trifluoromethoxy)phenyl)urea]
IC50 [1, 4]: 2.4 µM
Emax [1, 5]: 91.3%
melting point: 191 to 192 °C

CC1(C)CC(C)(C)c2cc(NC(=S)NCc3ccc(O)cc3)ccc2S1 [Compound 14p, 1-(4-Hydroxybenzyl)-3-(2,2,4,4-tetramethylthiochroman-6-yl)thiourea]
IC50 [1, 6]: 3.23 ± 0.49 µM
Emax [1, 7]: 56.8 ± 3.3%

CC1(C)CC(C)(C)c2cc(NC(=S)NNc3ccccc3)ccc2S1 [Compound 14q, 2-Phenyl-N-(2,2,4,4-tetramethylthiochroman-6-yl)hydrazine-1-carbothioamide]
IC50 [1, 6]: 7.03 ± 0.31 µM
Emax [1, 7]: 63.6 ± 3.7%

CC1(C)CC(C)(C)c2cc(NC(=S)NNC(=O)c3ccccc3)ccc2S1 [Compound 14r, 2-Benzoyl-N-(2,2,4,4-tetramethylthiochroman-6-yl)hydrazine-1-carbothioamide]
IC50 [1, 6]: 0.82 ± 0.21 µM
Emax [1, 7]: 67.9 ± 2.6%

CC1(C)CC(C)(C)c2cc(NC(=S)NNC(=O)c3ccc([N+](=O)[O-])cc3)ccc2S1 [Compound 14s, 2-(4-Nitrobenzoyl)-N-(2,2,4,4-tetramethylthiochroman-6-yl)hydrazine-1-carbothioamide]
IC50 [1, 6]: 3.15 ± 0.19 µM
Emax [1, 7]: 43.3 ± 2.9%

CC1(C)CC(C)(C)c2cc(NC(=S)NNC(=O)c3ccc(OC(F)(F)F)cc3)ccc2S1 [Compound 14t, N-(2,2,4,4-Tetramethylthiochroman-6-yl)-2-(4-(trifluoromethoxy)benzoyl)hydrazine-1-carbothioamide]
IC50 [1, 6]: 3.6 ± 0.18 µM
Emax [1, 7]: 57.4 ± 0.4%

CC1(C)CC(C)(C)c2cc(NC(=S)NNC(=O)c3cc(C(F)(F)F)cc(C(F)(F)F)c3)ccc2S1 [Compound 14u, 2-(3,5-Bis(trifluoromethyl)benzoyl)-N-(2,2,4,4-tetramethylthiochroman-6-yl)hydrazine-1-carbothioamide]
IC50 [1, 6]: 4 ± 0.12 µM
Emax [1, 7]: 61.4 ± 2.9%

CC1(C)CCSc2ccc(NC(=S)Nc3ccc([N+](=O)[O-])cc3)cc21 [Compound 14v, 1-(4,4-dimethyl-6-yl)-3-(4-nitrophenyl)thiourea]
IC50 [1, 6]: 4.01 ± 0.19 µM
Emax [1, 7]: 93.5 ± 1.7%
